Source: US7754272B2, “Local drug delivery” (Biocompatibles IK Limited, priority 1999, dated 2010)

Experiments:
[1] = Drug loading of HEMA-PC:HEMA:MMA:MBA crosslinked membrane; format: physicochemical; conditions: HEMA-PC:HEMA:MMA:MBA copolymer swollen in aqueous drug solution, room temperature, over night
Description: The polymers including MBA were polymerised in situ to form crosslinked membranes. […] The crosslinked polymers were used to form “infinite slabs” type membranes, to simulate the coating on a stent. […] The loaded levels were established to be the following: […]

[2] = Loading and release from quater polymer membrane; format: physicochemical; conditions: caffeine from aqueous, dipyridamole from 1:1 ethanol:water solution
[3] = Ex vivo human saphenous vein model, polymer/dipyridamole coated stents
Procedure: Palmaz-Schatz Stents (trade mark) were coated with a solution of the same polymer as used in Reference Example 1, dissolved in ethanol at 50 g/l concentration, also containing dipyridamole at 30 g/l concentration. Stents were dipped into the solution by hand, using several coating steps. The stents were then cured overnight at 70 C. in moist air.
The coated stents were tested in an ex vivo model using fresh human saphenous vein, previously washed in the same culture medium as is used in Example 16 above, in the ex vivo tests. The stents were delivered into veins, which were subsequently deposited into apparatus used in Example 16. The circulating liquid, and the vessel wall were analysed at 1, 6 or 24 hours to determine localisation of dipyridamole. […] Similarly, the level of dipyridamole remaining on the stent decreases from 1 hour to 24 hours. […] At this time, dipyridamole is concentrated in the section of the vein immediately surrounding the stent with lower levels in the vessel immediately adjacent those sections.

[4] = Release from loaded membrane into water; format: physicochemical; conditions: HEMA-PC:HEMA:MMA:MBA membrane, FIG. 1
Description: The profile of fractional release against square root of time for release into water (using the same equipment as example 2) are set out in FIG. 1.

[5] = Etoposide/polymer premix coated stents, loading and release; format: physicochemical
Procedure: In this example, rather than precoating the polymer according to reference Example 1, followed by loading of drug, a premix of drug and crosslinkable polymer is formed and coated onto a stent. The crosslinkable polymer is identical to that used in Reference Example 1, 0.932 g polymer being dissolved into a 1:1 ethanol:water (by volume) mixture (50 ml). […] The coated stents were cured overnight at a temperature in the range 50 to 70 C.
The amount of drug loaded into the stents was determined by elution into an ethanol:water 50:50 (volume) mixture. […] The amount of etoposide eluted into ethanol:water is in this range.
The release rate, from the results, for the stent coated with a polymer crosslinked in the presence of drug indicate that the release of drug may not be slowed down as compared to the alternative system, where precoated stents are contacted with a solution of drug.

[6] = cited from earlier work
[7] = Effect of polymer composition on release of dicloxacillin; format: physicochemical; conditions: HEMA-PC:LM 1:4 with 2 mole % 3-chloro-2-hydroxypropyl methacrylate vs example 3 polymer, FIG. 2
Description: The membrane formed based on a 1:4 copolymer of HEMA-PC and dodecylmethacrylate (LM) with 2 mole % of reactive monomer which is 3-chloro-2-hydroxypropyl methacrylate, was compared to the polymer crosslinked by diethylenically unsaturated monomer MBA used in example 3 above, to compare release rates to dicloxacillin, a medium molecular weight model drug.

OCCN(CCO)c1nc(N2CCCCC2)c2nc(N(CCO)CCO)nc(N3CCCCC3)c2n1 [Dipyridamole, dipyridamole]
Loading (mg/g polymer) [1]: 32 mg/g polymer
total loading [2]: 18 mg/g polymer
dipyridamole within the vessel wall ([3]; 1, 6 or 24 hours): no dipyridamole could be seen within the vessel wall until twenty four hours after stent deployment
dipyridamole in the circulating medium ([3]; 1 to 24 hours): can be detected in the circulating medium after one hour

Cn1c(=O)c2c(ncn2C)n(C)c1=O [Caffeine, caffeine]
Loading (mg/g polymer) [1]: 80 mg/g polymer
release into water [4]: substantially total release after about an hour
total loading [2]: 28 mg/g polymer
level of drug per stent (coated stent swollen in aqueous caffeine 10 mg/ml): around 0.025 mg per stent
share of loading released in the first 60 seconds (first 60 seconds): at least 80%
release times (release into aqueous medium, loaded from 10 mg/ml): negligible
loading levels or release half life versus 10 mg/ml loading (swelling solution 10% w/w caffeine): No significant increase

COc1cc([C@@H]2c3cc4c(cc3[C@@H](O[C@@H]3O[C@@H]5CO[C@@H](C)O[C@H]5[C@H](O)[C@H]3O)[C@H]3COC(=O)[C@H]23)OCO4)cc(OC)c1O [etoposide]
time at which release plateaued ([5]; into 5 ml phosphate buffered saline): around 5 minutes
average etoposide loading ([5]; premix coated stent, eluted into ethanol:water 50:50): around 12 μg per stent
solubility in water [6]: only slightly soluble in water

Cc1onc(-c2c(Cl)cccc2Cl)c1C(=O)N[C@@H]1C(=O)N2[C@@H]1SC(C)(C)[C@@H]2C(=O)O [Dicloxacillin, dicloxacillin]
Loading (mg/g polymer) [1]: 32 mg/g polymer
release half life, polymer having hydrophobic groups versus MBA-crosslinked polymer [7]: much higher
